Experimental data: ChEMBL document CHEMBL1201862, “PubChem BioAssay data set” (2004)
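Interpolation was linear, between the two tested concentrations surrounding the appropriate level; five concentrations were tested over 48 hours in 96-well plates. GI50 marks 50% less growth.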 Calls of active or inactive are those of the source. No stated cut-off is given here; in the data, active = GI50 up to about 1.1 µM and inactive = higher.

Columns and labels:
Assay in all cases: DTP human tumour cell line panel, 48 h
BT-549 = tested on: BT-549
CAKI-1 = tested on: CAKI-1
HCT-116 = tested on: HCT-116
HCT-15 = tested on: HCT-15
HT-29 = tested on: HT-29
Hs-578T = tested on: Hs-578T
KM12 = tested on: KM12
M14 = tested on: M14
MCF7 = tested on: MCF7
MDA-MB-231 = tested on: MDA-MB-231
MDA-N = tested on: MDA-N
MOLT-4 = tested on: MOLT-4
PC-3 = tested on: PC-3
SF-268 = tested on: SF-268
SNB-19 = tested on: SNB-19
SW-620 = tested on: SW-620
T47D = tested on: T47D
U-251 = tested on: U-251
UACC-62 = tested on: UACC-62
CCRF-CEM = tested on: CCRF-CEM

Row | SMILES | GI50 (BT-549) | GI50 (CAKI-1) | GI50 (HCT-116) | GI50 (HCT-15) | GI50 (HT-29) | GI50 (Hs-578T) | GI50 (KM12) | GI50 (M14) | GI50 (MCF7) | GI50 (MDA-MB-231) | GI50 (MDA-N) | GI50 (MOLT-4) | GI50 (PC-3) | GI50 (SF-268) | GI50 (SNB-19) | GI50 (SW-620) | GI50 (T47D) | GI50 (U-251) | GI50 (UACC-62) | GI50 (CCRF-CEM)
1 | Nc1nc(Cl)cc(NCCO)n1 | > 100 µM (inactive) | > 100 µM (inactive) | > 100 µM (inactive) | > 100 µM | > 100 µM (inactive) | > 100 µM (inactive) | > 100 µM (inactive) | > 100 µM (inactive) | > 100 µM (inactive) | > 100 µM (inactive) | > 100 µM (inactive) | > 100 µM (inactive) | > 100 µM (inactive) | > 100 µM (inactive) | > 100 µM (inactive) | > 100 µM (inactive) | > 100 µM (inactive) | > 100 µM (inactive) | > 100 µM (inactive) | 
2 | O=C(N/N=C\c1ccc([N+](=O)[O-])cc1)Nc1ccccc1 | > 100 µM (inactive) | > 100 µM (inactive) | > 100 µM (inactive) | > 100 µM | > 100 µM (inactive) | > 100 µM (inactive) | > 100 µM (inactive) | > 100 µM (inactive) | > 100 µM (inactive) |  | > 100 µM (inactive) | > 100 µM (inactive) | > 100 µM (inactive) |  | > 100 µM (inactive) | > 100 µM (inactive) | > 100 µM (inactive) | > 100 µM (inactive) | > 100 µM (inactive) | > 100 µM (inactive)
3 | c1ccc2c(c1)nc1n2CNCC1 | > 100 µM (inactive) | 49 µM (inactive) | 43.2 µM (inactive) | 50.2 µM | 42.2 µM (inactive) | > 100 µM (inactive) | > 100 µM (inactive) | > 100 µM (inactive) | 45.7 µM (inactive) | > 100 µM (inactive) | > 100 µM (inactive) | 43.3 µM (inactive) | > 100 µM (inactive) | > 100 µM (inactive) | > 100 µM (inactive) | 34.7 µM (inactive) | 37.2 µM (inactive) | > 100 µM (inactive) | > 100 µM (inactive) | 
4 | CN1CCC(CNC(=O)CCCCCCCCC(=O)NCC2(c3ccccc3)CCN(C)CC2)(c2ccccc2)CC1 | > 100 µM (inactive) |  | 60.1 µM (inactive) | > 100 µM | 45.5 µM (inactive) | 84.1 µM (inactive) | > 100 µM (inactive) | 57.3 µM (inactive) | > 100 µM (inactive) | > 100 µM (inactive) | > 100 µM (inactive) | > 100 µM (inactive) | > 100 µM (inactive) | 14.3 µM (inactive) | > 100 µM (inactive) | > 100 µM (inactive) | 30.7 µM (inactive) | > 100 µM (inactive) | > 100 µM (inactive) | 84.7 µM (inactive)
5 | C=CCOC(=O)c1c(C)[n+]([O-])c2cc(Cl)c(Cl)cc2[n+]1[O-] | 34.4 µM (inactive) | 19.2 µM (inactive) | 17.8 µM (inactive) | 13.5 µM | 18.2 µM (inactive) | 27.5 µM (inactive) | 29.7 µM (inactive) | 18.2 µM (inactive) | 20.5 µM (inactive) | 24 µM (inactive) | 20.6 µM (inactive) | 15.1 µM (inactive) | 31.6 µM (inactive) | 14.7 µM (inactive) | 74.8 µM (inactive) |  | 18.9 µM (inactive) | 31.8 µM (inactive) | 20.2 µM (inactive) | 17.3 µM (inactive)
6 | Cc1cn(C2CC(O)C(Cn3nncc3Cn3cnc4c(N)ncnc43)O2)c(=O)[nH]c1=O (stereo not given) | > 100 µM (inactive) | > 100 µM (inactive) | > 100 µM (inactive) | > 100 µM |  | > 100 µM (inactive) | > 100 µM (inactive) | > 100 µM (inactive) | > 100 µM (inactive) |  | > 100 µM (inactive) | > 100 µM (inactive) | > 100 µM (inactive) | > 100 µM (inactive) | > 100 µM (inactive) | > 100 µM (inactive) | > 100 µM (inactive) | > 100 µM (inactive) | > 100 µM (inactive) | > 100 µM (inactive)
7 | N#Cc1sc2c(c1O)c(=O)n(-c1ccccc1)c(=S)n2-c1ccccc1 | > 100 µM (inactive) |  |  | > 100 µM | > 100 µM (inactive) | > 100 µM (inactive) | > 100 µM (inactive) | > 100 µM (inactive) | > 100 µM (inactive) | > 100 µM (inactive) | > 100 µM (inactive) |  |  | > 100 µM (inactive) | > 100 µM (inactive) | > 100 µM (inactive) | > 100 µM (inactive) | > 100 µM (inactive) | > 100 µM (inactive) | > 10 µM (inactive)
8 | Cc1cn(C2CC(n3cc(Cn4cc(I)c(=O)[nH]c4=O)nn3)C(CO)O2)c(=O)[nH]c1=O (stereo not given) | > 100 µM (inactive) | > 100 µM (inactive) | > 100 µM (inactive) | > 100 µM |  | > 100 µM (inactive) | > 100 µM (inactive) | > 100 µM (inactive) | > 100 µM (inactive) | > 100 µM (inactive) | > 100 µM (inactive) | > 100 µM (inactive) | > 100 µM (inactive) | > 100 µM (inactive) | > 100 µM (inactive) | > 100 µM (inactive) | > 100 µM (inactive) | > 100 µM (inactive) | > 100 µM (inactive) | > 100 µM (inactive)
9 | Cc1cc2nn(C3CCCCO3)nc2cc1C (stereo not given) | > 100 µM (inactive) | > 100 µM (inactive) | > 100 µM (inactive) | > 100 µM | > 100 µM (inactive) | > 100 µM (inactive) | > 100 µM (inactive) | > 100 µM (inactive) | > 100 µM (inactive) | > 100 µM (inactive) | > 100 µM (inactive) | > 100 µM (inactive) | > 100 µM (inactive) | > 100 µM (inactive) | > 100 µM (inactive) |  | > 100 µM (inactive) | > 100 µM (inactive) | > 100 µM (inactive) | > 100 µM (inactive)
10 | O=C1c2c(Br)sc(Br)c2[C@H]2NC(=S)O[C@@H]12 | 16.5 µM (inactive) | 11.8 µM (inactive) | 10.7 µM (inactive) | 4.18 µM | 14.5 µM (inactive) | 23.2 µM (inactive) | 17.9 µM (inactive) | 14.3 µM (inactive) | 16.1 µM (inactive) | 17.9 µM (inactive) | 16 µM (inactive) | 1.32 µM (inactive) | 14.5 µM (inactive) | 15 µM (inactive) | 21.7 µM (inactive) | 3.18 µM (inactive) | 21.8 µM (inactive) | 13.2 µM (inactive) | 15.7 µM (inactive) | 2.15 µM (inactive)
11 | c1ccc(-c2c3c(nc4c2CC[C@H]4NC2=NCCN2)[C@@H](NC2=NCCN2)CC3)cc1 | > 40.3 µM (inactive) | > 100 µM (inactive) | 48.5 µM (inactive) | > 100 µM | > 100 µM (inactive) | > 100 µM (inactive) | > 100 µM (inactive) | > 100 µM (inactive) | > 100 µM (inactive) | > 100 µM (inactive) | > 100 µM (inactive) | 56.2 µM (inactive) | 98.2 µM (inactive) | 63.4 µM (inactive) |  | > 100 µM (inactive) | > 100 µM (inactive) | 9.31 µM (inactive) | > 100 µM (inactive) | > 100 µM (inactive)
12 | Cc1cc(Nc2ccc(S(=O)(=O)O)c3cc(S(=O)(=O)O)cc(S(=O)(=O)O)c23)c2ccccc2n1 | > 100 µM (inactive) | > 100 µM (inactive) | > 100 µM (inactive) | > 100 µM | > 100 µM (inactive) | > 100 µM (inactive) | > 100 µM (inactive) | > 100 µM (inactive) | > 100 µM (inactive) | > 100 µM (inactive) | > 100 µM (inactive) | > 100 µM (inactive) | > 100 µM (inactive) | > 100 µM (inactive) | > 100 µM (inactive) | > 100 µM (inactive) | > 100 µM (inactive) | > 100 µM (inactive) | > 100 µM (inactive) | 
13 | N#C[BH2-][n+]1cn(C2CC(OP(=O)(O)OCC3OC(n4ccc(N)nc4=O)CC3O)C(CO)O2)c2nc(N)[nH]c(=O)c21 (stereo not given) | > 100 µM (inactive) | > 100 µM (inactive) | > 100 µM (inactive) | > 100 µM | > 100 µM (inactive) | > 100 µM (inactive) | > 100 µM (inactive) |  | > 100 µM (inactive) | > 100 µM (inactive) | > 100 µM (inactive) | > 100 µM (inactive) | > 100 µM (inactive) | > 100 µM (inactive) | > 100 µM (inactive) | > 100 µM (inactive) | > 100 µM (inactive) | > 100 µM (inactive) | > 100 µM (inactive) | > 100 µM (inactive)
14 | O=C1CC2[C@@H](N3CCCC3)CCC(N1Cc1ccccc1)C2(O)O (stereo not given in full) | > 100 µM (inactive) | > 100 µM (inactive) | > 100 µM (inactive) | > 100 µM | > 100 µM (inactive) | > 100 µM (inactive) | > 100 µM (inactive) | > 100 µM (inactive) | > 100 µM (inactive) | > 100 µM (inactive) | > 100 µM (inactive) | > 100 µM (inactive) | > 100 µM (inactive) | > 100 µM (inactive) | > 100 µM (inactive) | > 100 µM (inactive) | > 100 µM (inactive) | > 100 µM (inactive) | > 100 µM (inactive) | > 100 µM (inactive)
15 | COc1ccc(/C=C\c2cc(OC)c(OC)c(OC)c2)c(O)c1O [COMBRETASTATIN A-1] | < 0.0223 µM (active) | 0.238 µM (active) |  |  | 7.03 µM (inactive) | < 0.01 µM (active) | 0.0658 µM (active) | 0.0953 µM (active) | < 0.01 µM (active) | 0.0148 µM (active) | < 0.01 µM (active) | 0.0785 µM (active) | < 0.0103 µM (active) | 0.0665 µM (active) |  | 0.0643 µM (active) | > 49.9 µM (inactive) | 0.0759 µM (active) | 0.0394 µM (active) | 0.0682 µM (active)
